Assay results taken from patent US12629350B2, “Transthyretin tetramer stabilizing agent, and preventing agent or progression suppressing agent for transthyretin amyloidosis” (KANEKA CORPORATION, priority 2020, dated 2026).

Biological target: T1, transthyretin tetramer (Homo sapiens, UniProt P02766)
T1 construct: from tissue; host or cells: human serum from three middle-aged and older persons
Experiment: Stabilization Test 1 of Transthyretin Tetramer (serum, urea denaturation, electrophoresis and Western blotting)
Format: biochemical
Settings: glabridin alone added at concentrations up to 50 μM
Experimental: Serums were obtained from blood taken from three middle-aged and older persons. […] The resulting mixtures were incubated at 25° C. for 30 minutes, and then denatured with urea. Using these samples, the transthyretins (the tetramers, the dimers, and the monomers) in the serum were quantitated by electrophoresis and Western blotting. The stabilization effect was investigated using the ratio of the monomers (monomer) to the total amounts of the transthyretins (total) (monomer/total) and the ratio of the tetramers (tetramer) to the total amounts of the transthyretins (total) (tetramer/total). The analysis results of the monomer/total ratio are shown in the left of FIG. 1. The analysis results of the tetramer/total ratio are shown in the right of FIG. 1.

[1] = serum of three middle-aged and older persons, 25° C. 30 minutes, then denatured with urea

- ratio of the monomers to the total amounts of the transthyretins (monomer/total) [1]: did not change
- ratio of the tetramers to the total amounts of the transthyretins (tetramer/total) [1]: did not increase
- stabilization effect for the transthyretin (serum): not observed
SMILES: CC1(C)C=Cc2c(ccc3c2OC[C@@H](c2ccc(O)cc2O)C3)O1 [glabridin]
